Values after ≈ are worked out from the molar mass of the structure shown. Blank lines part the entries; values can stand above or below the compound they belong to.
Columns and labels:
Plasmodium falciparum [1] = assay: Antimalarial activity against chloroquine sensitive Plasmodium falciparum K1; format: functional, organism-based
Plasmodium falciparum [2] = assay: Antimalarial activity against chloroquine sensitive Plasmodium falciparum 3D7; format: functional, organism-based
Leishmania donovani = assay: Antileishmanial activity against Leishmania donovani MHOM-ET-67/L82; format: functional, organism-based
[3] = Selectivity index, ratio of IC50 for rat L6 cells to IC50 for Plasmodium falciparum K1; format: toxicity; details: L6 cells versus Plasmodium falciparum K1, read-out: Ratio IC50
Trypanosoma cruzi = assay: Antitrypanosomal activity against Trypanosoma cruzi Tulahuen C2C4; format: functional, organism-based
Trypanosoma brucei = assay: Antitrypanosomal activity against Trypanosoma brucei rhodesiense STIB 900; format: functional, organism-based
[4] = Cytotoxicity against rat L6 cells assessed as reduction in cell viability; format: toxicity, cell-based
Plasmodium falciparum [5] = assay: Antimalarial activity against Plasmodium falciparum K1; format: functional, organism-based
Plasmodium falciparum [6] = assay: Antimalarial activity against multi drug resistant Plasmodium falciparum W2; format: functional, organism-based
Plasmodium falciparum [7] = assay: Antimalarial activity against chloroquine-resistant Plasmodium falciparum; format: functional, organism-based
Plasmodium falciparum [8] = assay: Antimalarial activity against Plasmodium falciparum W2 (MRA-157) incubated for 72 hrs; format: functional, organism-based
Plasmodium falciparum [9] = assay: Antimalarial activity against Plasmodium falciparum D6; format: functional, organism-based
Plasmodium falciparum [10] = assay: Antiplasmodial activity against chloroquine sensitive Plasmodium falciparum W2/Indochina; format: functional, organism-based
Plasmodium falciparum [11] = assay: Antiplasmodial activity against chloroquine sensitive Plasmodium falciparum FCA 20/Ghana; format: functional, organism-based
Plasmodium falciparum [12] = assay: Antiplasmodial activity against chloroquine sensitive Plasmodium falciparum FCB1-R/Colombia; format: functional, organism-based
Plasmodium falciparum [13] = assay: Antiplasmodial activity against GHA chloroquine sensitive Plasmodium falciparum; format: functional, organism-based
[14] = Cytotoxicity against human MRC5 cells; format: toxicity, cell-based
[15] = Plasmodium falciparum, W2/Indochina
[16] = Plasmodium falciparum, FCA 20/Ghana

Compound: COC(=O)c1cc2c3c(c1)c1cc(Cl)ccc1n3C=C(C)OC2
IC50 (Plasmodium falciparum [1]): > 2.45 µM
IC50 (Plasmodium falciparum [2]): > 1.78 µM

IC50 (Leishmania donovani): 20.4 µM
IC50 (Trypanosoma cruzi): 12.6 µM
IC50 (Trypanosoma brucei): 4.5 µM
IC50 (Plasmodium falciparum [5]): 0.459 µM
Compound: CCCc1cccc(-[n+]2ccc3c(c2)[nH]c2ccc(Br)cc23)c1
selectivity ratio [3]: 60
IC50 [4]: 27.5 µM

Compound: Cc1ccc(C2NCCc3c2[nH]c2ccccc32)cc1 (centres undefined)
IC50 (Plasmodium falciparum [6]): 7.6 µM

Compound: COC(=O)C1Cc2c([nH]c3ccccc23)C(c2c[nH]c3ccccc23)=N1 (centres undefined)
IC50 (Plasmodium falciparum [7]): > 29 µM

Compound: COC(=O)c1cc2c3c(c1)c1cc(Br)ccc1n3C=C(C)OC2
IC50 (Plasmodium falciparum [2]): > 5 µM

Compound: c1ccc2c(C3NCCc4c3[nH]c3ccccc43)c[nH]c2c1 (centres undefined)
IC50 (Plasmodium falciparum [7]): 5.1 µM

Compound: O=C(O)c1cc2c([nH]c3ccccc32)c(-c2c[nH]c3ccccc23)n1
IC50 (Plasmodium falciparum [7]): > 3.1 µM

Compound: Brc1ccc(C2NCCc3c2[nH]c2ccccc32)cc1 (centres undefined)
IC50 (Plasmodium falciparum [8]): 6.9 µM

IC50 (Plasmodium falciparum [9]): 0.2 µg/mL (≈ 0.52 µM)
Compound: O[C@]12C=C[C@@H]3CCN(CCCC/C=C\CC1)C[C@@]31C[C@@H]3CCCCCCN3[C@H]12

Compound: COc1ccc2[nH]cc(C3NCCc4c3[nH]c3ccc(OC)cc43)c2c1 (centres undefined)
IC50 (Plasmodium falciparum [7]): 8 µM

Compound: C/C=C/CC1OC(C)=Cn2c3ccccc3c3cc(C(=O)OC)cc1c32 (centres undefined)
IC50 (Plasmodium falciparum [2]): > 5 µM

Compound: Clc1ccc2[nH]c3c(N4CCC(N5CCCC5)CC4)nccc3c2c1
IC50 (Plasmodium falciparum [5]): 0.93 µM

Compound: C=C[C@H]1CN2CCc3c([nH]c4c([C@@H]5CCCN5C)c(O)ccc34)[C@@H]2C[C@@H]1CC1c2[nH]c3ccccc3c2CCN1C (some centres undefined)
IC50 (Plasmodium falciparum [10]; [15]): 0.152 µM
IC50 (Plasmodium falciparum [11]; [16]): 0.12 µM
IC50 (Plasmodium falciparum [12]): < 0.5 µM

Compound: Clc1ccc2[nH]c3c(N4CCC(N5CCCCC5)CC4)nccc3c2c1
IC50 (Plasmodium falciparum [5]): 10.2 µM

Compound: C=C(C#N)C1OC(C)=Cn2c3ccccc3c3cc(C(=O)OC)cc1c32 (centres undefined)
IC50 (Plasmodium falciparum [2]): > 5 µM

IC50 (Plasmodium falciparum [11]): 25.9 µM
IC50 (Plasmodium falciparum [11]; [16]): 17 µM
Compound: CN1CCc2c3n(c4ccccc24)C(O)C[C@H](C2=CCOC2=O)C[C@@H]31 (some centres undefined)

IC50 (Plasmodium falciparum [13]): 60 µM
Compound: CC(C)(C)OC(=O)CC[C@@H]1NC(=O)[C@H]2Cc3c([nH]c4ccccc34)C(c3ccc4c(c3)OCO4)N2C1=O (some centres undefined)
IC50 [14]: > 64 µM

Compound: COC(=O)c1cc2c([nH]c3ccccc32)c(-c2c[nH]c3ccccc23)n1
IC50 (Plasmodium falciparum [7]): > 29 µM

Compound: Cc1cccc(C2NCCc3c2[nH]c2ccccc32)c1 (centres undefined)
IC50 (Plasmodium falciparum [6]): 38.1 µM

Compound: CN(C)c1ccc(C2NCCc3c2[nH]c2ccccc32)cc1 (centres undefined)
IC50 (Plasmodium falciparum [8]): 3.9 µM

Compound: COC(=O)c1cc2c3c(c1)c1ccccc1n3C=C(C)OC2C1C=CCCC1 (centres undefined)
IC50 (Plasmodium falciparum [1]): > 5 µM
IC50 (Plasmodium falciparum [2]): 1.64 µM

IC50 (Plasmodium falciparum [8]): 11.3 µM
Compound: COc1cc(C2NCCc3c2[nH]c2ccccc32)c([N+](=O)[O-])cc1OC (centres undefined)

IC50 (Plasmodium falciparum [13]): > 64 µM
Compound: O=C1N[C@@H](COCc2ccccc2)C(=O)N2C(c3ccc4c(c3)OCO4)c3[nH]c4ccccc4c3C[C@H]12 (some centres undefined)
IC50 [14]: > 64 µM

IC50 (Plasmodium falciparum [5]): 0.24 µM
Compound: CCN(CC)CCC(C)Nc1nccc2c1[nH]c1ccc(Cl)cc12 (centres undefined)

IC50 (Plasmodium falciparum [8]): 29.2 µM
Compound: COc1ccc(OC)c(C2NCCc3c2[nH]c2ccccc32)c1 (centres undefined)

Compound: COC(=O)c1cc2c3c(c1)c1cc(Cl)ccc1n3C=C(C)OC2C/C=C(\C)CCC=C(C)C (centres undefined)
IC50 (Plasmodium falciparum [1]): > 5 µM
IC50 (Plasmodium falciparum [2]): 1.55 µM

IC50 (Plasmodium falciparum [8]): 47.7 µM
Compound: O=[N+]([O-])c1ccccc1C1NCCc2c1[nH]c1ccccc21 (centres undefined)

Compound: C=CCC1OC(C)=Cn2c3ccc(Cl)cc3c3cc(C(=O)OC)cc1c32 (centres undefined)
IC50 (Plasmodium falciparum [1]): > 5 µM
IC50 (Plasmodium falciparum [2]): > 5 µM

Compound: O=[N+]([O-])c1ccc(C2NCCc3c2[nH]c2ccccc32)cc1 (centres undefined)
IC50 (Plasmodium falciparum [8]): 1.7 µM

Compound: C=CCC1OC(C)=Cn2c3ccccc3c3cc(C(=O)OC)cc1c32 (centres undefined)
IC50 (Plasmodium falciparum [1]): > 5 µM
IC50 (Plasmodium falciparum [2]): > 5 µM

IC50 (Plasmodium falciparum [13]): 4 µM
Compound: NCCCC[C@H]1NC(=O)[C@H]2Cc3c([nH]c4ccccc34)C(c3ccc4c(c3)OCO4)N2C1=O (some centres undefined)
IC50 [14]: > 64 µM

Compound: COC(=O)c1cc2c3c(c1)c1ccccc1n3C=C(C)OC2C1=CCCC=C1 (centres undefined)
IC50 (Plasmodium falciparum [1]): > 5 µM
IC50 (Plasmodium falciparum [2]): > 5 µM

Compound: Cc1ccccc1C1NCCc2c1[nH]c1ccccc21 (centres undefined)
IC50 (Plasmodium falciparum [6]): 15.2 µM

IC50 (Plasmodium falciparum [5]): 1.2 µM
Compound: CCN(CC)CCC(C)Nc1nccc2c1[nH]c1ccc(F)cc12 (centres undefined)

Compound: COC(=O)C1Cc2c([nH]c3ccccc23)C(c2c[nH]c3ccccc23)N1 (centres undefined)
IC50 (Plasmodium falciparum [7]): 13.6 µM

IC50 (Plasmodium falciparum [5]): 0.42 µM
Compound: CCN(CC)CCC(C)Nc1nccc2c1[nH]c1ccccc12 (centres undefined)

IC50 (Plasmodium falciparum [13]): 25 µM
Compound: O=C1N[C@@H](Cc2c[nH]c3ccccc23)C(=O)N2C(c3ccc4c(c3)OCO4)c3[nH]c4ccccc4c3C[C@H]12 (some centres undefined)
IC50 [14]: 35 µM

IC50 (Plasmodium falciparum [8]): 12.6 µM
Compound: FC(F)(F)c1ccc(C2NCCc3c2[nH]c2ccccc32)cc1 (centres undefined)

Compound: CCN(CC)C1CCN(c2nccc3c2[nH]c2ccc(Cl)cc23)CC1
IC50 (Plasmodium falciparum [5]): 1.6 µM

Compound: Fc1ccc(C2NCCc3c2[nH]c2ccccc32)cc1 (centres undefined)
IC50 (Plasmodium falciparum [8]): 1.1 µM

Compound: C/C=C1\CN2CCc3c([nH]c4ccccc34)[C@@H]2C[C@@H]1CC1=NCCc2c1[nH]c1ccccc21
IC50 (Plasmodium falciparum [10]; [15]): 0.032 µM
IC50 (Plasmodium falciparum [11]; [16]): 0.857 µM
IC50 (Plasmodium falciparum [12]): < 2 µM

Compound: C[n+]1ccc2c(c1)[nH]c1ccc(Br)cc12
IC50 (Leishmania donovani): > 223 µM

Compound: N#Cc1ccc(C2NCCc3c2[nH]c2ccccc32)cc1 (centres undefined)
IC50 (Plasmodium falciparum [8]): 1.1 µM

Compound: CC1C2=CN3CCc4c([nH]c5ccc(O)cc45)C3CC2CC2C3C(CCN2C)c2ccccc2N13 (stereo in doubt; 33)
IC50 (Plasmodium falciparum [10]): 12.7 µM
IC50 (Plasmodium falciparum [11]): 9.55 µM

Compound: CC1C2=CN3CCc4c([nH]c5ccc(O)cc45)C3CC2CC2C3C(CCN2C)c2ccccc2N13 (stereo in doubt; 34)
IC50 (Plasmodium falciparum [10]): 4.57 µM
IC50 (Plasmodium falciparum [11]; [16]): 12.6 µM
IC50 (Plasmodium falciparum [12]): 2 µM

Compound: CC1NCCc2c1[nH]c1ccccc21 (centres undefined) [TETRAHYDROHARMAN]
IC50 (Plasmodium falciparum [6]): 1.4 µM

Source: ChEMBL document CHEMBL5096184, “Structure activity relationship in β-carboline derived anti-malarial agents” (Eur J Med Chem, 2021)
